The target of one assay is Beta-lactamase (Escherichia coli K-12, UniProt P00811). In words: In vitro inhibitory concentration against AmpC enzyme.
In assay [1] the target is Metallo-beta-lactamase type 2 (Bacteroides fragilis, UniProt P25910). The assay can be described thus: In vitro inhibitory concentration against CCRA enzyme.
The target of a further assay is Beta-lactamase TEM (Escherichia coli, UniProt P62593). The assay can be described thus: In vitro inhibitory concentration against TEM-1 enzyme.
Chain of Beta-lactamase TEM (P62593 whole entry): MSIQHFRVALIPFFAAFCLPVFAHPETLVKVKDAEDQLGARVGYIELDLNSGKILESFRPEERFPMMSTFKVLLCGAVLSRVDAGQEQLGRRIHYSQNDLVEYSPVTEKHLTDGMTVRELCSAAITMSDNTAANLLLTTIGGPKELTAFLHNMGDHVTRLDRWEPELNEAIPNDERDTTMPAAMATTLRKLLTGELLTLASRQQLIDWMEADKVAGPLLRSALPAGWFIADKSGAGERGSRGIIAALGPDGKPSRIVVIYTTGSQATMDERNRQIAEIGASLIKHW
The test system of assay [2] is Escherichia coli. The assay can be described thus: In vitro antibacterial activity against TEM-1 producing Escherichia coli (GC2206). The format is functional.
The subject of assay [3] is Escherichia coli. In words: In vitro antibacterial activity against AmpC producing Escherichia coli (GC2894). The format is functional.

Converted amounts (≈) assume the structure as drawn.

Chain of Beta-lactamase (P00811 whole entry): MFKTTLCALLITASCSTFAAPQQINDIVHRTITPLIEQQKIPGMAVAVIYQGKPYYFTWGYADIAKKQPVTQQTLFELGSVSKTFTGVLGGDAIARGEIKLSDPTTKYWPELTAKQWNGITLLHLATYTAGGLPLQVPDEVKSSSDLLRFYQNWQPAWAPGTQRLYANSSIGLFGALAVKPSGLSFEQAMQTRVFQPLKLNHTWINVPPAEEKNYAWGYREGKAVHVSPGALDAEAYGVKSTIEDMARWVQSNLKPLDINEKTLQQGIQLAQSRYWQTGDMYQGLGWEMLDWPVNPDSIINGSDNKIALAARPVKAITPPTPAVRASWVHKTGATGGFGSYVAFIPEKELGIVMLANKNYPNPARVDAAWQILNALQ
Chain of Metallo-beta-lactamase type 2 (P25910 whole entry): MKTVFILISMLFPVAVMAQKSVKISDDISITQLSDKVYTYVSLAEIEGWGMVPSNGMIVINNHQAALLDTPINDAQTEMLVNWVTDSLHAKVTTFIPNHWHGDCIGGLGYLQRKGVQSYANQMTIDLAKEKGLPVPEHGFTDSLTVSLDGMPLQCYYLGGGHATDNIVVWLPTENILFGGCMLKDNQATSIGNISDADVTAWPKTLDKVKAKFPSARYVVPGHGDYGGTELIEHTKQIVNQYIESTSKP

As usually defined, the IC50 is the concentration that gives 50% inhibition. Regarding `CC1(C)[C@H](C(=O)O)N2C(=O)[C@@H](Cc3cn(CC(N)Cc4ccc(O)cc4)nn3)[C@H]2S1(=O)=O` (some centres undefined), the IC50 amounted to 6.6 µM against Beta-lactamase, 24 µM in assay [1] and 15 µM against Beta-lactamase TEM.

Take `CC1(C)[C@H](C(=O)O)N2C(=O)C(C/C=C/C#N)[C@@H]2S1(=O)=O` (some centres undefined): the results for the IC50 (on Beta-lactamase; in assay [1]; against Beta-lactamase TEM) were greater than 100 µM, 3.1 µM and 24 µM, respectively.

`CON(C)C(=O)/C=C/CC1C(=O)N2[C@@H](C(=O)O)C(C)(C)S(=O)(=O)[C@H]12` (some centres undefined): the half-maximal inhibitory concentration (IC50) against Beta-lactamase was 17 µM; in assay [1], greater than 100 µM.

As a reminder, the MIC is the lowest concentration that inhibits growth of the organism. `CC1(C)[C@H](C(=O)O)N2C(=O)[C@@H](Cc3cn(-c4ccc(N)cc4)nn3)[C@H]2S1(=O)=O`: the half-inhibitory concentration (IC50) against Beta-lactamase came out at 1.4 µM; in assay [1] it was 1.8 µM; at Beta-lactamase TEM it was 0.6 µM. For the same compound, the MIC stood at 32 µg/mL (≈ 78.9 µM) with Escherichia coli [2] and 64 µg/mL (≈ 158 µM) in the assay with Escherichia coli [3].

As for `CC1(C)[C@H](C(=O)O)N2C(=O)[C@@H](Cc3cn(-c4ccccc4)nn3)[C@H]2S1(=O)=O`, the results for the IC50 (against Beta-lactamase; in assay [1]; on Beta-lactamase TEM) were 3.4 µM, greater than 100 µM and 1 µM, respectively.

For `COC(=O)/C=C/CC1C(=O)N2[C@@H](C(=O)O)C(C)(C)S(=O)(=O)[C@@H]12` (some centres undefined), the results for the IC50 (at Beta-lactamase; in assay [1]; against Beta-lactamase TEM) were 64 µM, 1.4 µM and 2.8 µM, respectively.

In the case of `CC1(C)[C@H](C(=O)O)N2C(=O)[C@@H](Cc3cn(CC4CCCN4)nn3)[C@H]2S1(=O)=O` (some centres undefined), the IC50 against Beta-lactamase came out at 5.2 µM; in assay [1], 22 µM; at Beta-lactamase TEM it was 7.9 µM.

`CC1(C)[C@H](C(=O)O)N2C(=O)[C@@H](Cc3cn(-c4ccc(O)cc4)nn3)[C@H]2S1(=O)=O`: the IC50 amounted to 2.3 µM against Beta-lactamase, 2.1 µM in assay [1] and 0.7 µM at Beta-lactamase TEM.

On to `CC1(C)[C@H](C(=O)O)N2C(=O)C(C/C=C/C=O)[C@H]2S1(=O)=O` (some centres undefined), for which the figures for the half-maximal inhibitory concentration (IC50) (against Beta-lactamase; in assay [1]; against Beta-lactamase TEM) were 17 µM, greater than 100 µM and 12 µM, respectively.

`CC1(C)[C@H](C(=O)O)N2C(=O)[C@@H](Cc3cn(-c4ccc(F)cc4)nn3)[C@H]2S1(=O)=O`: the IC50 was determined as 3 µM on Beta-lactamase, 4.1 µM in assay [1] and 1.6 µM on Beta-lactamase TEM.

Consider `CC(=O)/C=C/CC1C(=O)N2[C@@H](C(=O)O)C(C)(C)S(=O)(=O)[C@H]12` (some centres undefined), for which the IC50 against Beta-lactamase came to 100 µM; in assay [1], 71 µM; at Beta-lactamase TEM it was 8.4 µM.

With `COC(=O)/C=C/CC1C(=O)N2[C@@H](C(=O)O)C(C)(C)S(=O)(=O)[C@H]12` (some centres undefined), the IC50 on Beta-lactamase was 29 µM; in assay [1], greater than 100 µM; on Beta-lactamase TEM, 8.6 µM.

With `CC(=O)/C=C/CC1C(=O)N2[C@@H](C(=O)O)C(C)(C)S(=O)(=O)[C@@H]12` (some centres undefined), the results for the IC50 (against Beta-lactamase; in assay [1]; against Beta-lactamase TEM) were 40 µM, 3 µM and 6.5 µM, respectively.

For `CCN1CCN(C(=O)N[C@@H](C(=O)N[C@@H]2C(=O)N3[C@@H]2SC(C)(C)[C@@H]3C(=O)O)c2ccccc2)C(=O)C1=O` [PIPERACILLIN], the MIC against Escherichia coli [2] and with Escherichia coli [3] was greater than 64 µg/mL each time.

Turning to `C[C@]1(Cn2ccnn2)[C@H](C(=O)O)N2C(=O)C[C@H]2S1(=O)=O` [TAZOBACTAM], the MIC in the assay on Escherichia coli [2] was determined as 2 µg/mL (≈ 6.66 µM); in the assay with Escherichia coli [3] it was 16 µg/mL (≈ 53.3 µM).
